# Experimental data published in patent publication US7138361B2, “Herbicidal heterocycles” (E. I. du Pont de Nemours and Company, priority 2000, dated 2006).
# Tests used:
# Assay type in all cases: in vivo
# [1] = system: Surinam grass (Brachiaria decumbens); test: Test B preemergence
# In short: (§1)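 Ratings on a 0 to 100 visual scale (100 complete control) compare treated plants with controls 13 to 15 days after application. Treatments were pre- or postemergence sprays of compound in non-phytotoxic solvent with surfactant.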
# [2] = system: barnyardgrass (Echinochloa crus-galli); test: Test B preemergence
# In short: as §1
# [3] = system: cocklebur (Xanthium strumarium); test: Test B preemergence
# In short: as §1
# corn (Zea mays) = test: Test B preemergence
# In short: as §1
# [4] = system: crabgrass (Digitaria sanguinalis); test: Test B preemergence
# In short: as §1
# [5] = system: giant foxtail (Setaria faberii); test: Test B preemergence
# In short: as §1
# [6] = system: lambsquarters (Chenopodium album); test: Test B preemergence
# In short: as §1
# [7] = system: morning glory (Ipomoea hederacea); test: Test B preemergence
# In short: as §1
# [8] = system: pigweed (Amaranthus retroflexus); test: Test B preemergence
# In short: as §1
# rice (Oryza saliva) = test: Test B preemergence
# In short: as §1
# [9] = system: velvetleaf (Abutilon theophrasti); test: Test B preemergence
# In short: as §1
# Sunflower [10] = test: Test C preemergence; details: Rate 125 g/ha; scale 0 to 100, 0 no effect, 100 complete control
# [11] = system: Surinam grass (Brachiaria decumbens); test: Test C preemergence
# In short: (§2)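 Visual 0–100 rating vs controls (0 = no effect, 100 = complete control) at 12–14 d, greenhouse. Compounds in non-phytotoxic solvent + surfactant; pre: sprayed after seeding; post: 1–4-leaf plants, 2–18 cm.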
# [12] = system: bermudagrass (Cynodon dactylon); test: Test C preemergence
# In short: as §2
# [13] = system: cocklebur (Xanthium strumarium); test: Test C preemergence
# In short: as §2
# [14] = system: common ragweed (Ambrosia elatior); test: Test C preemergence
# In short: as §2
# [15] = system: crabgrass (Digitaria sanguinalis); test: Test C preemergence
# In short: as §2
# [16] = system: giant foxtail (Setaria faberii); test: Test C preemergence
# In short: as §2
# [17] = system: goosegrass (Eleusine indica); test: Test C preemergence
# In short: as §2
# [18] = system: morningglory (Ipomoea hederacea); test: Test C preemergence
# In short: as §2
# [19] = system: velvetleaf (Abutilon theophrasti); test: Test C preemergence
# In short: as §2
# Sunflower [20] = test: Test C preemergence; details: Rate 500 g/ha, visual evaluation after 12 to 14 days
# [21] = Preemergence, Rate 500 g/ha, scale 0 to 100, 0 no effect, 100 complete control
# [22] = preemergence, Rate 125 g/ha, scale of 0 to 100 where 0 is no effect and 100 is complete control, 13 to 15 days
# [23] = Rate 125 g/ha, scale 0 to 100, 0 no effect, 100 complete control
# [24] = preemergence, Rate 62 g/ha, scale 0 to 100
# [25] = preemergence, Rate 500 g/ha, visual evaluation after 12 to 14 days
# [26] = preemergence, Rate 250 g/ha, scale 0 to 100, 0 no effect, 100 complete control
smiles,measurement,setting,value
CC(C)c1cccc(N2CCC(n3ccc(C(C)(C)C)n3)C2=O)c1 (stereo not drawn) [Compound 111],"Plant response rating, Surinam grass",[1]; [21],0
same,"Plant response rating, Surinam grass",[1]; [22],0
same,"Plant response rating, Barnyardgrass",[2]; [21],100
same,"Plant response rating, Barnyardgrass",[2]; [22],0
same,"Plant response rating, Cocklebur",[3]; [21],0
same,"Plant response rating, Cocklebur",[3]; [22],0
same,"Plant response rating, Corn",corn (Zea mays); [21],30
same,"Plant response rating, Corn",corn (Zea mays); [22],0
same,"Plant response rating, Crabgrass",[4]; [21],100
same,"Plant response rating, Crabgrass",[4]; [22],70
same,"Plant response rating, Foxtail, Giant",[5]; [21],0
same,"Plant response rating, Foxtail, Giant",[5]; [22],0
same,"Plant response rating, Lambsquarters",[6]; [21],100
same,"Plant response rating, Lambsquarters",[6]; [22],30
same,"Plant response rating, Morningglory",[7]; [21],0
same,"Plant response rating, Morningglory",[7]; [22],0
same,"Plant response rating, Pigweed",[8]; [21],100
same,"Plant response rating, Pigweed",[8]; [22],0
same,"Plant response rating, Rice",rice (Oryza saliva); [21],0
same,"Plant response rating, Rice",rice (Oryza saliva); [22],0
same,"Plant response rating, Velvetleaf",[9]; [21],0
same,"Plant response rating, Velvetleaf",[9]; [22],0
same,"Plant response rating, Sunflower",Sunflower [10],0
same,"Plant response rating, Surinam grass",[11]; [23],0
same,"Plant response rating, Surinam grass",[11]; [24],0
same,"Plant response rating (0 to 100), Surinam grass",[11]; [25],10
same,"Plant response rating, Surinam grass",[11]; [26],0
same,"Plant response rating, Bermudagrass",[12]; [23],90
same,"Plant response rating, Bermudagrass",[12]; [24],60
same,"Plant response rating (0 to 100 where 0 is no effect and 100 is complete control), Bermudagrass",[12]; [25],100
same,"Plant response rating, Bermudagrass",[12]; [26],100
same,"Plant response rating, Cocklebur",[13]; [23],0
same,"Plant response rating, Cocklebur",[13]; [24],0
same,"Plant response rating (0 to 100), Cocklebur",[13]; [25],0
same,"Plant response rating, Cocklebur",[13]; [26],0
same,"Plant response rating, Ragweed, Common",[14]; [23],0
same,"Plant response rating, Ragweed, Common",[14]; [24],0
same,"Plant response rating (0 to 100), Ragweed, Common",[14]; [25],0
same,"Plant response rating, Ragweed, Common",[14]; [26],0
same,"Plant response rating, Crabgrass",[15]; [23],100
same,"Plant response rating, Crabgrass",[15]; [24],80
same,"Plant response rating (0 to 100), Crabgrass",[15]; [25],100
same,"Plant response rating, Crabgrass",[15]; [26],100
same,"Plant response rating, Foxtail, Giant",[16]; [23],0
same,"Plant response rating, Foxtail, Giant",[16]; [24],0
same,"Plant response rating (0 to 100), Foxtail, Giant",[16]; [25],80
same,"Plant response rating, Foxtail, Giant",[16]; [26],30
same,"Plant response rating, Goosegrass",[17]; [23],85
same,"Plant response rating, Goosegrass",[17]; [24],40
same,"Plant response rating (0 to 100), Goosegrass",[17]; [25],100
same,"Plant response rating, Goosegrass",[17]; [26],100
same,"Plant response rating, Morningglory",[18]; [23],0
same,"Plant response rating, Morningglory",[18]; [24],0
same,"Plant response rating (0 to 100), Morningglory",[18]; [25],0
same,"Plant response rating, Morningglory",[18]; [26],0
same,"Plant response rating, Velvetleaf",[19]; [23],0
same,"Plant response rating, Velvetleaf",[19]; [24],0
same,"Plant response rating (0 to 100), Velvetleaf",[19]; [25],0
same,"Plant response rating, Velvetleaf",[19]; [26],0
same,"Plant response rating (0 to 100), Sunflower",Sunflower [20],0
